Source: ChEMBL document CHEMBL5338797, “Rational Design of Covalent Kinase Inhibitors by an Integrated Computational Workflow (Kin-Cov)” (J Med Chem, 2023)
The source made the active and inactive calls. The rule behind the calls is not given here.

Columns and labels:
[1] = molecular target: MAP kinase p38 (Homo sapiens) (UniProt O15264+Q15759+Q16539+P53778); test: Inhibition of p38 phosphorylation in human U2OS cells measured for 1 hr by Western blot analysis; format: cell-based; settings: dose <= 10.0 µM
[2] = molecular target: T1, Mitogen-activated protein kinase kinase kinase 20 (Homo sapiens, UniProt Q9NYL2); test: Inhibition of recombinant ZAK (unknown origin) using ATP as substrate preincubated for 60 mins followed by substrate addition and measured after 40 mins by fluorescence based envision multilabel reader method
Target sequence in this assay (Q9NYL2 whole entry): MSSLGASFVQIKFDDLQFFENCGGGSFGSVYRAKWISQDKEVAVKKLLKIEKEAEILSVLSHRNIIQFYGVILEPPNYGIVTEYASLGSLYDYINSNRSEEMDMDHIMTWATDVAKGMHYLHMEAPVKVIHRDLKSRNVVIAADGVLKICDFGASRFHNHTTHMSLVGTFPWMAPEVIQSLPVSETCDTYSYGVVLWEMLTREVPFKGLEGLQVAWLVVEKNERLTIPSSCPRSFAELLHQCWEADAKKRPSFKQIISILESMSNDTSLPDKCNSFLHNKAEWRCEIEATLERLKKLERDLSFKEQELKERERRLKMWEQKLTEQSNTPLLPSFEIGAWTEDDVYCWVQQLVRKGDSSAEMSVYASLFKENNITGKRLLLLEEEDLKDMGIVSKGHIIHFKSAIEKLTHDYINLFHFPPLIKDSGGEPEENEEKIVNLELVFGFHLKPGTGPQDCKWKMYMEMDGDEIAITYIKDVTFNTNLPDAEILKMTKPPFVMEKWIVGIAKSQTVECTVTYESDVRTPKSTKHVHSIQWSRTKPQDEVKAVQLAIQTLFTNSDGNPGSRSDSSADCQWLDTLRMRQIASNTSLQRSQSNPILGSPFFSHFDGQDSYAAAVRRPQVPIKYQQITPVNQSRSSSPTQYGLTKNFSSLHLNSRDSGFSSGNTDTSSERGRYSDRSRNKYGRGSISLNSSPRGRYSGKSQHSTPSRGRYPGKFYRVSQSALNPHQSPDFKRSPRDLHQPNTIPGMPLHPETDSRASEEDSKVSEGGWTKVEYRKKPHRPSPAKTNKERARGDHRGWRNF

[3] = molecular target: Serine/threonine-protein kinase B-raf (Homo sapiens, UniProt P15056, V600E); test: Inhibition of B-RAF V600E mutant (unknown origin) incubated for 1 hr in presence of ATP by envision multilabel reader analysis
[4] = molecular target: T1, Mitogen-activated protein kinase kinase kinase 20; test: Inhibition of partial length human ZAK by KINOMEscan assay
Target sequence in this assay (Q9NYL2 whole entry): as above

[5] = molecular target: T2, LIM domain kinase 1 (Homo sapiens, UniProt P53667); test: Inhibition of full length human LIMK1 by KINOMEscan assay
Target sequence in this assay (P53667 whole entry, the tested form may be a part): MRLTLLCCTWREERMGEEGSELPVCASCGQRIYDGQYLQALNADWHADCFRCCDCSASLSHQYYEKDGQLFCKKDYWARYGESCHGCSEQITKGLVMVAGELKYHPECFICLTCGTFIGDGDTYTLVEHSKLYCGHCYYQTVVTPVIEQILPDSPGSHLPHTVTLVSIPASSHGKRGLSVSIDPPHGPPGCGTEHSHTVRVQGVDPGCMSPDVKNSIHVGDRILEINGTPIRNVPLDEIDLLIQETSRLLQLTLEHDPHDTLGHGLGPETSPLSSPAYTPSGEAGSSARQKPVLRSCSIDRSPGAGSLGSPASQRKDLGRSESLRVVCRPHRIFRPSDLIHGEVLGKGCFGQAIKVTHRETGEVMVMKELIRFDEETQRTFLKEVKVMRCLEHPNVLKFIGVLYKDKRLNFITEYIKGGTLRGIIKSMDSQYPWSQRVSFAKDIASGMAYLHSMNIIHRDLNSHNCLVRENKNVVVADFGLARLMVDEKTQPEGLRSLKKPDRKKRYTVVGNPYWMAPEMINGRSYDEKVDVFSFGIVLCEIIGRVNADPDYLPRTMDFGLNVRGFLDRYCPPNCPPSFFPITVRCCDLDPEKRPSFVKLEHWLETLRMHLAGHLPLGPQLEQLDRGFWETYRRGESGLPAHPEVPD

[6] = molecular target: T3, LIM domain kinase 2 (Homo sapiens, UniProt P53671); test: Inhibition of full length human LIMK2 by KINOMEscan assay
Target sequence in this assay (P53671 whole entry, the tested form may be a part): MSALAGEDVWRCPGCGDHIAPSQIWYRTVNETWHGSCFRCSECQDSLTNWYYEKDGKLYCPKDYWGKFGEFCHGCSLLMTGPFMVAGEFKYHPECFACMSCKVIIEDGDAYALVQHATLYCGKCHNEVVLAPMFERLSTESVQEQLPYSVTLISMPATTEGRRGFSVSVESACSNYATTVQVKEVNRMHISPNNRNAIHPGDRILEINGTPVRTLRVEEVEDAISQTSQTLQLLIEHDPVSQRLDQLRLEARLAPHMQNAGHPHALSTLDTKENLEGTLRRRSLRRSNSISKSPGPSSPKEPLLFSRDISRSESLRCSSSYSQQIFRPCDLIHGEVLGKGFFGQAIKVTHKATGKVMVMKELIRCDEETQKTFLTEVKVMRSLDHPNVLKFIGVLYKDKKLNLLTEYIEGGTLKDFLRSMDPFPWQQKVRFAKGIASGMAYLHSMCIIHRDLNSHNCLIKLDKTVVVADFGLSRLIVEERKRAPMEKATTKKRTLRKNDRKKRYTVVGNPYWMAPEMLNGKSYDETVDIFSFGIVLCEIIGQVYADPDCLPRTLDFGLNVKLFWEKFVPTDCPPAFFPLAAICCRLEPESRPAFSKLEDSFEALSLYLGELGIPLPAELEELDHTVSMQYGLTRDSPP

[7] = molecular target: T4, Tyrosine-protein kinase Lck (Homo sapiens, UniProt P06239); test: Inhibition of partial length human LCK by KINOMEscan assay
Target sequence in this assay (P06239 whole entry): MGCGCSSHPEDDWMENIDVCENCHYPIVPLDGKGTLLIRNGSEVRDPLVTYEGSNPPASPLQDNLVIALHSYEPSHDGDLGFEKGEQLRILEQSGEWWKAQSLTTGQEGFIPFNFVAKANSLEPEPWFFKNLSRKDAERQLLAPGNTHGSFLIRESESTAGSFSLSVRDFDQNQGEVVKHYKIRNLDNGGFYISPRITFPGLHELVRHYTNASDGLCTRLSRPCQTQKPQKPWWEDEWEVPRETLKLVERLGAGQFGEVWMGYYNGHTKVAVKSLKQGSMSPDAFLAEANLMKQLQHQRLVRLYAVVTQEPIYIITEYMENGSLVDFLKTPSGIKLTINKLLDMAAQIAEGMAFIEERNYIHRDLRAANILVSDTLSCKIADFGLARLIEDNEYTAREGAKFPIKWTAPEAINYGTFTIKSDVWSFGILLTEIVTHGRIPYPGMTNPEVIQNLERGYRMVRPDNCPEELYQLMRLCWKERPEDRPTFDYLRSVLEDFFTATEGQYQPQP

[8] = molecular target: T1, Mitogen-activated protein kinase kinase kinase 20; test: Inhibition of ZAKapha (unknown origin) at 10 uM measured after 1 hr by Western blot analysis
Target sequence in this assay (Q9NYL2 2-800 limits assumed): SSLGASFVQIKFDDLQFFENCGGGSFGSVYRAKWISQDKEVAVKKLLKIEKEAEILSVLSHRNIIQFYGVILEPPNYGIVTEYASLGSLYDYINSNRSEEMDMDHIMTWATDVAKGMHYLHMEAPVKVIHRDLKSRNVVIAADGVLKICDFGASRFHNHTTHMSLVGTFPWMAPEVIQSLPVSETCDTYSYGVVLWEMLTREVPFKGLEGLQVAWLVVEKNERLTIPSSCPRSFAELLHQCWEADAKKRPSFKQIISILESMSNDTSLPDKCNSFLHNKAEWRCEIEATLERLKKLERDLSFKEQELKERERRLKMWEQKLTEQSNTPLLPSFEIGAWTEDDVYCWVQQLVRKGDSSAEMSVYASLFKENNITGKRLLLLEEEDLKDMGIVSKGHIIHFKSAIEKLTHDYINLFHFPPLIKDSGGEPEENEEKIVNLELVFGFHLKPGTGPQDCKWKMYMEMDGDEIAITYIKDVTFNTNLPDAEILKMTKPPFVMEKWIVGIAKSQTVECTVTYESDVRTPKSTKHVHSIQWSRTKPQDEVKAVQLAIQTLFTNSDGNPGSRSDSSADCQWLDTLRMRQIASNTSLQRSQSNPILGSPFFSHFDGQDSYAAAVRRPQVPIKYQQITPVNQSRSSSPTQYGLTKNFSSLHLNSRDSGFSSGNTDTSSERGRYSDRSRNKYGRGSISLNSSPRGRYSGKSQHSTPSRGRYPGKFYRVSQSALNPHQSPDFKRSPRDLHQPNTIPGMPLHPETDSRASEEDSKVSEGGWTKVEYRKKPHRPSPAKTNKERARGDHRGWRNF

[9] = molecular target: T1, Mitogen-activated protein kinase kinase kinase 20; test: Inhibition of ZAKbeta (unknown origin) at 10 uM measured after 1 hr by Western blot analysis
Target sequence in this assay (Q9NYL2 2-800 limits assumed): as above

[10] = tested on: U2OS; test: Induction of apoptosis in ZAK knockout human U2OS cells assessed as reduction in cell death at 10 uM measured after 24 hrs in presence of doxorubicin; format: functional, cell-based
[11] = tested on: U2OS; test: Induction of apoptosis in human U2OS cells assessed as reduction in cell death at 10 uM measured after 24 hrs in presence of doxorubicin; format: functional, cell-based
[12] = tested on: U2OS; test: Induction of apoptosis in ZAK knockout human U2OS cells assessed as increase in cleaved-caspase 3 level at 10 uM measured for 4 hrs; format: functional, cell-based
[13] = molecular target: T2, LIM domain kinase 1; test: Inhibition of full length human LIMK1 at 1000 nM by KINOMEscan assay relative to control; values are per cent of control
Target sequence in this assay (P53667 whole entry, looked up, the tested form may be a part): as the sequence (P53667 whole entry, the tested form may be a part) above

[14] = molecular target: T3, LIM domain kinase 2; test: Inhibition of full length human LIMK2 at 1000 nM by KINOMEscan assay relative to control; values are per cent of control
Target sequence in this assay (P53671 whole entry, looked up, the tested form may be a part): as the sequence (P53671 whole entry, the tested form may be a part) above

[15] = molecular target: T1, Mitogen-activated protein kinase kinase kinase 20; test: Inhibition of partial length human ZAK at 1000 nM by KINOMEscan assay relative to control; values are per cent of control
Target sequence in this assay (Q9NYL2 2-800 limits assumed): as the sequence (Q9NYL2 2-800 limits assumed) above

[16] = molecular target: T4, Tyrosine-protein kinase Lck; test: Inhibition of partial length human LCK at 1000 nM by KINOMEscan assay relative to control; values are per cent of control
Target sequence in this assay (P06239 2-509 limits assumed): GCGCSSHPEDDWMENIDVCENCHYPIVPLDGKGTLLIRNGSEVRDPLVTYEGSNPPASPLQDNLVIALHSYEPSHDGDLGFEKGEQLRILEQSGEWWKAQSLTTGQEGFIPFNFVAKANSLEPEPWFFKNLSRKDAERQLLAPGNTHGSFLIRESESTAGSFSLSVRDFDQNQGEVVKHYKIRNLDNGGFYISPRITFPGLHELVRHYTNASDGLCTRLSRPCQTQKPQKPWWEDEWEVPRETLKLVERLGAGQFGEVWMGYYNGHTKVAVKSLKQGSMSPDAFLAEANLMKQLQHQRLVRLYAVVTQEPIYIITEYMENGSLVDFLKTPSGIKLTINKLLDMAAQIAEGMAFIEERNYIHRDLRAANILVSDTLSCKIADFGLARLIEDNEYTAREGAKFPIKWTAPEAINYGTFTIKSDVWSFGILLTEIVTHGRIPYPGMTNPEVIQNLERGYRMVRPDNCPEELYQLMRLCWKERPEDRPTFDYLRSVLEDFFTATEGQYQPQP

[17] = tested on: U2OS; test: Induction of apoptosis in human U2OS cells assessed as increase in cleaved-caspase 3 level at 100 uM measured for 4 hrs; format: functional, cell-based

Chain of Serine/threonine-protein kinase B-raf (P15056 2-766 V600E limits assumed): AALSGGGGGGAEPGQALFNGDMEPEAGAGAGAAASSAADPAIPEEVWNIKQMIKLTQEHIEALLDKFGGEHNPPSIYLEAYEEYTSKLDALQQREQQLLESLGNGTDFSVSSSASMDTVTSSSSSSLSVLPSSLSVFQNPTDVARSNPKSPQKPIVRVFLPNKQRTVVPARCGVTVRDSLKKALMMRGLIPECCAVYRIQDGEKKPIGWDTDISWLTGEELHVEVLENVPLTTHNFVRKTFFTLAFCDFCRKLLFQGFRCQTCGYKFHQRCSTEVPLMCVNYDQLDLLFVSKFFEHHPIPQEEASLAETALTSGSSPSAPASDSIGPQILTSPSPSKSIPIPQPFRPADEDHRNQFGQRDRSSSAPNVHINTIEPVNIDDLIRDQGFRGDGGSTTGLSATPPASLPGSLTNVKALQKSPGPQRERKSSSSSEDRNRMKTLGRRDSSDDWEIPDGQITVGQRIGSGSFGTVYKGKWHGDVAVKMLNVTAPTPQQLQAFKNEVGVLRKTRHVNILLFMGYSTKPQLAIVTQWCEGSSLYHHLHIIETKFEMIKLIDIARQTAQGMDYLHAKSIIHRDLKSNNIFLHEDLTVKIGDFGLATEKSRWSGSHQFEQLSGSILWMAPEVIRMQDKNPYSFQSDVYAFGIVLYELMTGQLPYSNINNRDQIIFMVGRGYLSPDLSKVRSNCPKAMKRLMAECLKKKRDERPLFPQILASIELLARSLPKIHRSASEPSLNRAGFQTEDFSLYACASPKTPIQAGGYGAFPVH

## COc1ccc(C[C@H]2NC[C@H](O)[C@H]2OC(C)=O)cc1
[1]
  inhibition: Dose-Dependent Effect

## C=CC(=O)N1CCC(Oc2n[nH]c3ncc(-c4cn(-c5c(F)ccc(NS(=O)(=O)c6cccc(-c7ccccc7)c6)c5F)nn4)cc23)C1 (configuration not stated)
[2]
  IC50: 11.5 nM
[3]
  IC50: > 1000 nM
[4]
  IC50: 11.5 nM
[5]
  IC50: 12.3 nM
[6]
  IC50: 21.3 nM
[7]
  IC50: 204 nM
[1]
  inhibition: Dose-Dependent Effect
[8]
  inhibition: Active
[9]
  inhibition: Active
[10]
  Activity: inactive
[11]
  Activity: Active
[12]
  Activity: inactive
[13]
  residual activity: 9%
[14]
  residual activity: 6%
[15]
  residual activity: -4%
[16]
  residual activity: 8%

## C=CC(=O)N1CC[C@H](Oc2n[nH]c3ncc(-c4cn(-c5c(F)ccc(NS(=O)(=O)c6cccc(-c7ccccc7)c6)c5F)nn4)cc23)C1
[2]
  IC50: 9.9 nM

## C=CC(=O)N1CC[C@@H](Oc2n[nH]c3ncc(-c4cn(-c5c(F)ccc(NS(=O)(=O)c6cccc(-c7ccccc7)c6)c5F)nn4)cc23)C1
[2]
  IC50: 12.3 nM

## C=CC(=O)N1CCCC(NC(=O)CCCCCCOc2n[nH]c3ncc(-c4cn(-c5c(F)ccc(NS(=O)(=O)c6cccc(-c7ccccc7)c6)c5F)nn4)cc23)C1 (configuration not stated)
[2]
  IC50: 34.7 nM

## COc1n[nH]c2ncc(-c3cn(-c4c(F)ccc(NS(=O)(=O)c5cccc(-c6ccccc6)c5)c4F)nn3)cc12
[2]
  IC50: 8.8 nM
[3]
  IC50: > 1000 nM

## C=CC(=O)NCCCOc1n[nH]c2ncc(-c3cn(-c4c(F)ccc(NS(=O)(=O)c5cccc(-c6ccccc6)c5)c4F)nn3)cc12
[2]
  IC50: 9.1 nM

## COc1cccc2c1C(=O)c1c(O)c3c(c(O)c1C2=O)C[C@@](O)(C(=O)CO)C[C@@H]3O[C@H]1C[C@H](N)[C@H](O)[C@H](C)O1
[17]
  Activity: Active

## C=CC(=O)NCCCCCCN1CCC(COc2n[nH]c3ncc(-c4cn(-c5c(F)ccc(NS(=O)(=O)c6cccc(-c7ccccc7)c6)c5F)nn4)cc23)CC1
[2]
  IC50: 10.1 nM

## C=CC(=O)N1CCC(Oc2n[nH]c3ncc(-c4cn(-c5c(F)ccc(NS(=O)(=O)c6ccccc6)c5F)nn4)cc23)C1 (configuration not stated)
[2]
  IC50: 10.1 nM
[3]
  IC50: 247 nM
